Consider one compound from patent publication US11813304B2, “Compounds and methods for inhibiting phosphate transport” (Ardelyx, Inc., priority 2013, dated 2023).

The subject of this experiment is HEK-293 cells. Put plainly: Sodium-dependent 33P phosphate uptake in HEK-293 cells (mock, rat or human NaP2b transfected). It is filed as cell-based. The conditions noted are these: 5 μM EIPA; cells not pretreated to lower their intracellular pH; 23 min at room temperature. Here is the method:
Experiments were performed to test the relationship between alterations in intracellular pH and the uptake of phosphate ions (Pi) in human embryonic kidney cells (HEK-293 cells).
HEK-293 cells were seeded into 96-well plates at 25,000 cells/well and cultured overnight. Cells were then transfected with either rat or human NaP2b cDNA, or were mock transfected (no DNA) using Lipofectamine 2000 (Invitrogen). Cells were allowed to approach confluence during a second overnight incubation.
An ammonium pulse procedure was used to reduce the intracellular pH from ˜7.4 to ˜6.8. Medium was aspirated from the wells, cells were washed twice with NaCl-HEPES buffer (100 mM NaCl, 50 mM HEPES, 10 mM glucose, 5 mM KCl, 2 mM CaCl2, 1 mM MgCl2, pH 7.4), then incubated for 30 min at room temperature with NH4Cl-HEPES buffer (20 mM NH4Cl, 80 mM NaCl, 50 mM HEPES, 5 mM KCl, 2 mM CaCl2, 1 mM MgCl2, pH 7.4) containing 5 μM BCECF-AM. […] The reduction in intracellular pH to approximately pH 6.8 was verified by monitoring the pH sensitive changes in BCECF fluorescence (λex 505 nm, λem 538 nm) normalized to the pH insensitive BCECF fluorescence (λex 439 nm, λem 538 nm). […]
Uptake of ^33P was measured in the presence and absence of 5 μM EIPA, a specific inhibitor of NHE1. […] Cells were lysed by addition of 20 μL 0.1% Tween 80 followed by 100 μL scintillation fluid, and counted using a TopCount (Perkin Elmer).

SMILES strings stand for the structures.

For the compound `CCN(c1nc(N)c(C(=O)NC(=N)N)nc1Cl)C(C)C` [EIPA], the “Pi uptake (33P)” value is “small yet significant decrease”.
